System: B2021
Experiment: Antibiotic resistance, MIC by broth microdilution (BMD)
Format: cell-based, Pseudomonas sp.
Conditions: lowest antibiotic concentration that inhibited 80% of growth; LB, 18 h, 28° C.
Description: Minimum inhibitory concentrations (MICs) for tested antibiotics were determined by the broth microdilution (BMD) method. Four antibiotics were used: Streptomycin Sulfate, Nalidixic Acid, Oxytetracycline and Erythromycine. Briefly. MICs were determined in sterile 96-well plates by two-fold serial dilutions in 100 μL of LB. […] The MIC was defined as the lowest antibiotic concentration that inhibited 80% of growth (based on OD measurements) in comparison to the control. Moreover, cell viability was confirmed by addition of 30 μL of 0.01% resazurin. Any color changes from blue-purple to pink were recorded as positive and the MIC was defined as the lowest antibiotic concentration lacking this color change.

With Streptomycine Sulfate the “Antibiotic resistance (MIC)” value was 1600 µg/mL.

With CC[C@H]1OC(=O)[C@H](C)[C@@H](O[C@H]2C[C@@](C)(OC)[C@@H](O)[C@H](C)O2)[C@H](C)[C@@H](O[C@@H]2O[C@H](C)C[C@H](N(C)C)[C@H]2O)[C@](C)(O)C[C@@H](C)C(=O)[C@H](C)[C@@H](O)[C@]1(C)O [Erythromycine] the “Antibiotic resistance (MIC)” value was 240 µg/mL.

CCn1cc(C(=O)O)c(=O)c2ccc(C)nc21 [Nalidixic Acid] was tested, and the “Antibiotic resistance (MIC)” value was 240 µg/mL.

CN(C)[C@@H]1C(O)=C(C(N)=O)C(=O)[C@@]2(O)C(O)=C3C(=O)c4c(O)cccc4[C@@](C)(O)[C@H]3[C@H](O)[C@@H]12 [Oxytetracycline] was tested, and the “Antibiotic resistance (MIC)” value was 3.13 µg/mL.

From US20220132862A1, “PSEUDOMONAS SP. STRAIN, COMPOSITION COMPRISING THE SAME, AND USES THEREOF” (FUTURECO BIOSCIENCE, S.A., priority 2019, published 2022)
